Data published in ChEMBL document CHEMBL5518189, “Design, synthesis and biological evaluation of 1,2,3-triazole benzothiazole derivatives as tubulin polymerization inhibitors with potent anti-esophageal cancer activities” (Eur J Med Chem, 2024).
The source made the active and inactive calls. No cut-off for these calls is given here.

Assays:
[1] = test system: ECa-109; assay: Effect on MST1 level in human EC109 cells at 40 to 60 nM measured after 48 hrs; type: functional, cell-based; conditions: dose 40-60 nM
[2] = target: Tubulin; assay: Inhibition of tubulin polymerization (unknown origin) measured upto 4500 secs by fluorescence based analysis; type: protein-complex assay, Homo sapiens
[3] = test system: KYSE-30; assay: Induction of apoptosis in human KYSE-30 cells measured after 48 hrs by annexin V-FITC and PI staining based flow cytometry analysis; type: functional, cell-based; conditions: dose 20-40 nM
[4] = test system: ECa-109; assay: Downregulation of YAP level in human EC109 cells at 60 nM incubated for 48 hrs in presence of MG132; type: functional, cell-based
[5] = test system: ECa-109; assay: Effect on MST2 level in human EC109 cells at 40 to 60 nM measured after 48 hrs; type: functional, cell-based; conditions: dose 40-60 nM
[6] = test system: ECa-109 cell line; assay: Induction of apoptosis in human EC109 cells assessed as increase in cleaved PARP level at 40 to 100 nM measured after 48 hrs by Western blot analysis; type: functional, cell-based; conditions: dose 40-100 nM
[7] = test system: HCT-116; assay: Antiproliferative activity against human HCT-116 cells assessed as inhibition of cell growth measured after 48 hrs by CCK8 method; type: functional, cell-based; conditions: HCT-116, 48 h
[8] = test system: KYSE-30; assay: Induction of apoptosis in human KYSE-30 cells assessed as effect on Mcl-1 level at 40 to 60 nM by flow cytometry analysis; type: functional, cell-based; conditions: dose 40-60 nM
[9] = target: T1, Tubulin (Homo sapiens) (UniProt P68371+Q9H4B7+P0DPH7+P68366+Q13509+Q71U36+P04350+Q3ZCM7+P07437+P68363+Q9BQE3+Q6PEY2+Q13885+Q9BVA1+Q9BUF5); assay: Inhibition of tubulin polymerization (unknown origin) at 0.3 to 3 uM measured upto 4500 secs by fluorescence based analysis; type: protein-complex assay; conditions: dose 0.3-3 µM, time <= 4500.0 sec
[10] = test system: ECa-109 cell line; assay: Antiproliferative activity against human EC109 cells assessed as reduction in cell viability by CCK-8 method; type: functional, cell-based; conditions: time 12-48 hrs, TDE = time-dependent effect
[11] = test system: ECa-109 cell line; assay: Induction of apoptosis in human EC109 cells assessed as increase in total number of apoptotic cells at 40 nM measured after 48 hrs by annexin V-FITC and PI staining based flow cytometry analysis (reference value: 4.93%); type: functional
[12] = test system: KYSE-30; assay: Induction of apoptosis in human KYSE-30 cells assessed as downregulation of Bcl-2 level at 40 to 60 nM by flow cytometry analysis; type: functional, cell-based; conditions: dose 40-60 nM
[13] = test system: KYSE-30; assay: Induction of apoptosis in human KYSE-30 cells assessed as increase in Noxa expression level at 40 to 60 nM by flow cytometry analysis; type: functional, cell-based; conditions: dose 40-60 nM
[14] = test system: ECa-109 cell line; assay: Induction of apoptosis in human EC109 cells assessed as effect on Mcl-1 level at 40 to 60 nM by flow cytometry analysis; type: functional, cell-based; conditions: dose 40-60 nM
[15] = test system: ECa-109 cell line; assay: Induction of apoptosis in human EC109 cells assessed as decrease in pro-caspase 3 level at 40 to 100 nM measured after 48 hrs by Western blot analysis; type: functional, cell-based; conditions: dose 40-100 nM
[16] = test system: KYSE-30; assay: Induction of cell cycle arrest in human KYSE-30 cells assessed as upregulation of histone H3phosphorylation level at 40 to 60 nM measured after 48 hrs by Western blot analysis; type: functional, cell-based; conditions: dose 40-60 nM
[17] = test system: KYSE-30; assay: Induction of apoptosis in human KYSE-30 cells assessed as effect on Bcl-xl level at 40 to 60 nM by flow cytometry analysis; type: functional, cell-based; conditions: dose 40-60 nM
[18] = test system: ECa-109 cell line; assay: Induction of cell cycle arrest in human EC109 cells assessed as accumulation of cells at G2/M phase at 0 to 40 nM measured after 48 hrs by propidium iodide staining based flow cytometry analysis (reference value: 14.57%); type: functional; conditions: dose 0-40 nM
[19] = test system: ECa-109 cell line; assay: Induction of apoptosis in human EC109 cells assessed as effect on Bcl-xl level at 40 to 60 nM by flow cytometry analysis; type: functional, cell-based; conditions: dose 40-60 nM
[20] = test system: KYSE-30; assay: Induction of cell cycle arrest in human KYSE-30 cells assessed as effect on cyclin B1 level at 40 to 60 nM measured after 48 hrs by Western blot analysis; type: functional, cell-based; conditions: dose 40-60 nM
[21] = target: T1, Tubulin (Homo sapiens); assay: Inhibition of tubulin polymerization in human EC109 cells assessed as appearance of multinucleation at 20 to 40 nM incubated for 6 hrs by immunofluorescence staining based fluorescence microscopic analysis; type: cell-based; conditions: dose 20-40 nM
[22] = test system: KYSE-30; assay: Induction of apoptosis in human KYSE-30 cells assessed as increase in total number of apoptotic cells at 40 nM measured after 48 hrs by annexin V-FITC and PI staining based flow cytometry analysis (reference value: 13.77%); type: functional
[23] = target: T1, Tubulin (Homo sapiens); assay: Inhibition of tubulin polymerization in human KYSE-30 cells assessed as appearance of multinucleation at 20 to 40 nM incubated for 6 hrs by immunofluorescence staining based fluorescence microscopic analysis; type: cell-based; conditions: dose 20-40 nM
[24] = test system: KYSE-30; assay: Antiproliferative activity against human KYSE-30 cells assessed as reduction in cell viability measured after 48 hrs by CCK-8 method; type: functional, cell-based; conditions: dose 10-70 nM
[25] = test system: ECa-109 cell line; assay: Induction of apoptosis in human EC109 cells assessed as downregulation of XIAP level at 40 to 60 nM by flow cytometry analysis; type: functional, cell-based; conditions: dose 40-60 nM
[26] = test system: ECa-109 cell line; assay: Induction of cell cycle arrest in human EC109 cells assessed as effect on cyclinB1 level at 40 to 60 nM measured after 48 hrs by Western blot analysis; type: functional, cell-based; conditions: dose 40-60 nM
[27] = test system: KYSE-30; assay: Induction of cell cycle arrest in human KYSE-30 cells assessed as accumulation of cells at G2/M phase at 0 to 40 nM measured after 48 hrs by propidium iodide staining based flow cytometry analysis (reference value: 13.87%); type: functional; conditions: dose 0-40 nM
[28] = test system: KYSE-30; assay: Induction of apoptosis in human KYSE-30 cells assessed as effect on bak level at 40 to 60 nM by flow cytometry analysis; type: functional, cell-based; conditions: dose 40-60 nM
[29] = test system: KYSE-30; assay: Induction of apoptosis in human KYSE-30 cells assessed as increase in caspase 3 activity at 40 to 100 nM measured after 48 hrs by Western blot analysis; type: functional, cell-based; conditions: dose 40-100 nM
[30] = test system: ECa-109 cell line; assay: Induction of apoptosis in human EC109 cells assessed as effect on bak level at 40 to 60 nM by flow cytometry analysis; type: functional, cell-based; conditions: dose 40-60 nM
[31] = test system: KYSE-30; assay: Antiproliferative activity against human KYSE-30 cells assessed as reduction in cell viability at 70 nM measured after 48 hrs by CCK-8 method relative to control; type: functional
[32] = test system: KYSE-30; assay: Induction of apoptosis in human KYSE-30 cells assessed as downregulation of XIAP level at 40 to 60 nM by flow cytometry analysis; type: functional, cell-based; conditions: dose 40-60 nM
[33] = test system: Cell membrane; assay: Induction of mitochondrial membrane depolarization in human KYSE-30 cells assessed as increase in caspase 9 activity at 40 to 60 nM incubated for 24 hrs by flow cytometry analysis; type: cell membranes; conditions: dose 40-60 nM
[34] = test system: ECa-109 cell line; assay: Induction of cell cycle arrest in human EC109 cells assessed as downregulation of CDK1 level at 40 to 60 nM measured after 48 hrs by Western blot analysis; type: functional, cell-based; conditions: dose 40-60 nM
[35] = test system: KYSE-30; assay: Induction of apoptosis in human KYSE-30 cells assessed as decrease in pro-caspase 3 level at 40 to 100 nM measured after 48 hrs by Western blot analysis; type: functional, cell-based; conditions: dose 40-100 nM
[36] = test system: ECa-109 cell line; assay: Induction of apoptosis in human EC109 cells measured after 48 hrs by annexin V-FITC and PI staining based flow cytometry analysis; type: functional, cell-based; conditions: dose 20-40 nM
[37] = test system: KYSE-30; assay: Inhibition of colony formation in human KYSE-30 cells at 20 to 40 nM incubated for 7 days by crystal violet staining based analysis; type: functional, cell-based; conditions: dose 20-40 nM, time 7.0 day

- IC50 [2]: 0.446 µM
- IC50 [7]: 0.062 µM
- inhibition [9]: Active
- inhibition [21]: Active
- inhibition [23]: Active
- Activity [33]: Active
Structure (SMILES): COc1ccc(CN(C(=O)Cn2cc(CSc3nc4ccccc4s3)nn2)c2cc(OC)c(OC)c(OC)c2)cc1O
- Activity [1]: inactive
- Activity [3]: Dose-Dependent Effect
- Activity [4]: inactive
- Activity [5]: inactive
- Activity [6]: Active
- Activity [8]: inactive
- Activity [10]: Tde
- Activity [11]: 31.07%
- Activity [12]: Active
- Activity [13]: Active
- Activity [14]: inactive
- Activity [15]: Active
- Activity [16]: Active
- Activity [17]: inactive
- Activity [18]: 55.65%
- Activity [19]: inactive
- Activity [20]: inactive
- Activity [22]: 28.56%
- Activity [24]: Dose-Dependent Effect
- Activity [25]: Active
- Activity [26]: inactive
- Activity [27]: 28.15%
- Activity [28]: inactive
- Activity [29]: Active
- Activity [30]: inactive
- Activity [31]: >90%
- Activity [32]: Active
- Activity [34]: Active
- Activity [35]: Active
- Activity [36]: Dose-Dependent Effect
- inhibition [37]: Active
